Several values for one entry are separate records, joined by “and”; a condition that tells them apart may be missing. Equal values may be shown once.
What was measured:
[1] = Metal chelation by UV–vis spectrometry, Job's method and affinity estimate (Cu); assay type: physicochemical; details: for LogK Cu (affinity of ligand for Cu^II, ML2): 2L+M⇔ML2; for Mole fraction of compound at the intersection of the Job plot (Cu^II): Job's method, CuSO4, sum of concentrations 20 μm; for Maximum absorption of compound–Cu^II complex: bathochromic shift from 246 nm of the free compound
Text: (§1) Given the 8-hydroxy(amino)quinoline moiety with the properties to bind metal ions, the abilities of all the compounds in binding metal ions (Cu^II, Fe^III, Zn^II) were studied by UV–vis spectrometry. At first three compounds were chose to test the binding abilities. Upon the addition of CuCl2 or ZnSO4 the maximum absorption suffered a bathochromic shift, pointing out the formation of complex compound–Cu^II. […] […].
(§2) To determine the stoichiometry of the complex compound–Cu^II, the technique of continuous variations (also called Job’s method) was used by preparing solutions of compounds 15a, 17b and CuSO4 so that the sum of concentrations of both species was constant at […] in all samples, but the proportions of both components varied between 0 and 100%. The UV spectra were recorded and the absorbance change at the maximum absorption wavelength of the compound-Cu^II complex, meaning the 15a-Cu^II complex at 264 nm and the 17b-Cu^II at 265 nm, respectively. The absorbance change was plotted versus the mole fraction of the compound, giving two straight lines whose equations were calculated. […] […].
(§3) Since all the ligands studied L from ML2 species and in accordance with the Beer–Lambert law, complexation reactions can be summarized as 2L+M⇔ML2 with K = 1−α/4C^2α^3 , and α can be calculated from the data of the absorption.
(§4) Metal-chelating properties were evaluated by UV–vis spectrometry. To screen the ability of chelating metal ions, the same concentrations of compound and metal ion were mixed in CH3OH/H2O (v/v = 9/1), and the UV–vis spectrum was tested; compared to the compound, the maximum absorption that suffered a bathochromic shift would point out the formation of a complex compound–metal ion. The stoichiometry of the complex compound–metal ion was determined by Job’s method. The affinity of compounds 15–17 as ligands (excepted 15f, 16d, 16g, 16k) for Cu^II or Zn^II were estimated in the CH3OH/H2O solution (v/v = 9/1). Since all the ligands studied L from ML2 species and in accordance with the Beer–Lambert law, complexation reactions can be summarized as 2L+M⇔ML2 with K = 1−α/4C^2α^3 , and α = A/Amax; A was the data of absorption tested when the compound–metal ion = 2/1 under the maximum absorption wavelength of the complex, Amax was the absorption when the compound completely formed a complex with the metal ion; the data can be obtained as an approximation when the metal ion is in excess, and the absorption changes little as the concentration of metal ion still increases.

[2] = biological target: T1, butyrylcholinesterase (BuChE, from horse serum) (Equus caballus, UniProt P81908); test: biochemical; details: equine serum BuChE, Ellman's method, pH 7.4; means ± SEM of at least three experiments; read-out: IC50 BuChE Inhibition
T1 construct: purchased Sigma-Aldrich
Method: (§5) Cholinesterase (ChE) inhibitory activity was evaluated using a modified Ellman’s spectrophotometric method. Acetylcholinesterase (AChE, from electric eel), butyrylcholinesterase (BuChE, from equine serum), 5,5′-dithiobis-(2-nitrobenzoic acid) (Ellman’s reagent, DTNB), S-butyrylthiocholine iodide (BTCI), acetylthiocholine iodide (ATCI), and tarcine hydrochloride were purchased from Sigma-Aldrich. Tarcine hydrochloride was used as a reference standard. All the assays were carried out in 0.1 M KH2PO4/K2HPO4 buffer (pH = 7.4). Stock solutions of tested compounds (10 mM) were prepared in DMSO (below 0.5%, v/v) and diluted in phosphate buffer. The assay was performed in 96-well plate by adding 25 μL of 1 mM acetylthiocholine iodide or butyrylthiocholine iodide used as substrate in the assay, 125 μL of 1 mM 5,5′-dithiobis-(2-nitrobenzoic acid) (DTNB), 25 μL of 0.1 M phosphate buffer (pH = 7.4), 25 μL of testing substance in various concentrations, and 50 μL of 0.2 Units/mL AChE from an electric eel or BuChE from equine serum, respectively. At least five concentrations of the test compounds were assayed. […] The enzyme activity and the percentage inhibition were determined.

[3] = biological target: T2, acetylcholinesterase (AChE, from an electric eel) (Electrophorus electricus, UniProt O42275); test: biochemical; details: for IC50: electric eel AChE, Ellman's method, pH 7.4, means ± SEM of at least three experiments, read-out: IC50 AChE Inhibition; for Selectivity Index = IC50 (AChE)/IC50 (BuChE): ratio of eeAChE and equine BuChE IC50
T2 construct: purchased Sigma-Aldrich
Method: as §5

[4] = Metal chelation by UV–vis spectrometry, stoichiometry and affinity estimate (Zn); assay type: physicochemical; details: for LogK Zn (affinity of ligand for Zn^II, ML2): 2L+M⇔ML2; for Maximum absorption of compound–Zn^II complex: bathochromic shift from 246 nm of the free compound
Text: as §1, §2, §3, §4

Aβ1–42 = biological target: T3, Aβ1–42 (Homo sapiens, UniProt P05067); test: Inhibition of self-induced Aβ1–42 aggregation (ThT fluorescence); assay type: biochemical; details: 20 μM compound, thioflavin-T fluorescence, mean ± SD of at least three independent experiments; read-out: Aβ Aggregation Inhibition (%), self-induced Aβ1–42
T3 construct: aggregation of Aβ1–42 synthetic peptide into fibrils
Method: Self-induced Aβ1–42 aggregation of all the compounds we obtained was also evaluated. […] ThT is a histochemical dye that is known to bind to the peptide β-sheet conformation, which is the predominant secondary structure of amyloid-beta fibrils. […] The inhibition studies were carried out upon incubating Aβ1–42 with and without the compounds.
Aβ1–42 was dissolved in 100% 1,1,1,3,3,3-[…] (HFIP) to a concentration of 1 mg/mL, sonicated in a water bath overnight, aliquoted into microcentrifuge tubes, dried under vacuum, and stored at −20 °C. Immediately prior to use, the HFIP-treated Aβ1–42 was dissolved in dimethylsulfoxide (DMSO) as the stored solution. […] Amounts of 5 μL of compound (200 μM) and 5 μL of 200 μM Aβ1–42 were added into 40 μL of phosphate-buffered saline (PBS at pH 7.4). After incubation at room temperature on a thermostatic shaker for 72 h, 100 μL of 5 μM ThT solution (in PBS at pH 7.4) was added to the reaction solution. […] The Aβ1–42 aggregation inhibition percentage was calculated using the following formula: inhibition percentage = (F1 − F2)/(F1 − F0) × 100%.

[5] = biological target: T4, electric eel AChE (eeAChE) (Electrophorus electricus, UniProt O42275); test: Kinetic study of AChE inhibition (Lineweaver–Burk plots); assay type: biochemical; details: 16e at 10, 50 and 100 nM, Lineweaver–Burk plot
T4 construct: purchased Sigma-Aldrich
Method: To elucidate the mechanism of AChE’s inhibition by the synthesized hybrids, a detailed enzyme kinetic study was conducted using electric eel AChE (eeAChE).
The slope (Km/Vmax) reflects the apparent enzyme–substrate affinity, whereas the y-intercept (1/Vmax) corresponds to the maximum reaction velocity.
The assay medium contained 25 μL of PBS (pH 7.4), 50 μL of enzyme, 25 μL of compound solution, and 125 μL of 1.0 mM DTNB; the reaction was started by addition of 25 μL of different concentrations of ATC.
The slope (Km/Vmax) reflects the enzyme’s affinity for the substrate in the presence of the inhibitor, while the y-intercept (1/Vmax) indicates the maximum velocity of the reaction.

[6] = Metal chelation by UV–vis spectrometry (Fe); assay type: physicochemical
Method: as §1, §4

[7] = design: method as in PMID 17382398; details: data from the literature ref 50; cited from earlier work
[8] = design: method as in PMID 17382398; details: data from the literature ref 50; cited from earlier work; remark: listed apart in the source

T2 sequence (O42275 24-633): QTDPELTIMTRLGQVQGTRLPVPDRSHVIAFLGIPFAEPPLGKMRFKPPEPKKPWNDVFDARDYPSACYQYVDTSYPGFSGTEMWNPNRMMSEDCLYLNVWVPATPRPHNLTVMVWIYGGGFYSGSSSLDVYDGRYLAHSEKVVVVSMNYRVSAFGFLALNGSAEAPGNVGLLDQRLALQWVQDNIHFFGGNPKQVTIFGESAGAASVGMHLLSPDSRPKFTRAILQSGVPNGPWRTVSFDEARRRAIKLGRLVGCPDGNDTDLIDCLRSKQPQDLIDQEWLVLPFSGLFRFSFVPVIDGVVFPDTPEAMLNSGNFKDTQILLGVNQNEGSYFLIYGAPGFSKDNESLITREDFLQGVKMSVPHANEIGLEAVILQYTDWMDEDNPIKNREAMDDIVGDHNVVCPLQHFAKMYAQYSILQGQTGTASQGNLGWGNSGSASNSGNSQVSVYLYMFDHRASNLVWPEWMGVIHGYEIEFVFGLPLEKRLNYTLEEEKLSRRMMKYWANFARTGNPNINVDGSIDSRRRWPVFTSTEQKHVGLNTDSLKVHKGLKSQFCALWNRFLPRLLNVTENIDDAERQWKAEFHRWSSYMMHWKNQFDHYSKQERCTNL
T3 sequence (P05067 672-713): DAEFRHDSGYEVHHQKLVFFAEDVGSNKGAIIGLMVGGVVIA
T1 sequence (P81908 whole entry): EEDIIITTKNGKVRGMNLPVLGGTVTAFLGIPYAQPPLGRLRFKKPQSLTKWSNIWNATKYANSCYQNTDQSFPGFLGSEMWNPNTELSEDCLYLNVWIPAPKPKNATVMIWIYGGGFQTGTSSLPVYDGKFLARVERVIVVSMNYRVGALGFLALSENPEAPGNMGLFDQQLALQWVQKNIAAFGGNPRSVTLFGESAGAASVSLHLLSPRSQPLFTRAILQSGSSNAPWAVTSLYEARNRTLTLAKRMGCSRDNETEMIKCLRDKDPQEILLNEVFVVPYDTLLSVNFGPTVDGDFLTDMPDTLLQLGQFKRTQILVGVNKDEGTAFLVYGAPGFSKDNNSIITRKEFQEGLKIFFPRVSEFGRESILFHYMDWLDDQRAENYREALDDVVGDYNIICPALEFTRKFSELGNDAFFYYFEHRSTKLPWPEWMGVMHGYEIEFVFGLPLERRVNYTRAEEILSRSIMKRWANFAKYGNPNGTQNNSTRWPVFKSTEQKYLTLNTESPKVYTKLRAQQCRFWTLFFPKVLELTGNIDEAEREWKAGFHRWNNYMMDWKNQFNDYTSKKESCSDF
T4 sequence (O42275 24-633): as the sequence (O42275 24-633) above

SMILES	LogK Cu (affinity of ligand for Cu^II, ML2) ([1]; CH3OH/H2O (v/v = 9/1), UV–vis)	IC50 [2]	IC50 [3]	Selectivity Index = IC50 (AChE)/IC50 (BuChE) [3]	LogK Zn (affinity of ligand for Zn^II, ML2) ([4]; CH3OH/H2O (v/v = 9/1))	inhibition at 20 µM (Aβ1–42)	Type of AChE inhibition [5]	Complex formation with Fe^III (UV–vis shift) [6]	Mole fraction of compound at the intersection of the Job plot (Cu^II) [1]	Maximum absorption of compound–Cu^II complex ([1]; UV–vis)	Maximum absorption of compound–Zn^II complex [4]	Complex formation with Cu^II (UV–vis shift / binding) ([1]; UV–vis, CH3OH/H2O (v/v = 9/1))	Complex formation with Zn^II (UV–vis shift / binding) ([4]; CH3OH/H2O (v/v = 9/1))	LogK Zn, value in parentheses [7]	LogK Cu, value in parentheses [8]
Oc1cccc2ccc(CN3CCN(CCCNc4c5c(nc6ccccc46)CCCC5)CC3)nc12 [Compound 16e, 2-((4-(3-((1,2,3,4-Tetrahydroacridin-9-yl)amino)propyl)piperazin-1-yl)methyl)quinolin-8-ol]	9.46	0.043 ± 0.005 µM	0.1 ± 0.0032 µM	2.33	9.63	80.5 ± 4.4%	mixed-type inhibition								
O=C(CN1CCN(Cc2ccc3cccc(O)c3n2)CC1)Nc1c2c(nc3ccccc13)CCCC2 [Compound 15a, 2-(4-((8-Hydroxyquinolin-2-yl)methyl)piperazin-1-yl)-N-(1,2,3,4-tetrahydroacridin-9-yl)acetamide]	10.14	7.74 ± 0.89 µM	2.02 ± 0.12 µM	0.26	9.91	46.8 ± 4.1%		no reliable shift	around 0.7	264 nm	266 nm and 262 nm				
Nc1cccc2ccc(CN3CCN(CCCNc4c5c(nc6ccccc46)CCCC5)CC3)nc12 [Compound 16g, N-(3-(4-((8-aminoquinolin-2-yl)methyl)piperazin-1-yl)propyl)-1,2,3,4-tetrahydroacridin-9-amine]		0.018 ± 0.003 µM	0.052 ± 0.001 µM	2.89		94.6 ± 4.2%		no reliable shift				no reliable shift	no reliable shift		
Cc1ccc2c(CN3CCN(CC(=O)Nc4c5c(nc6ccccc46)CCCC5)CC3)ccc(O)c2n1 [Compound 17b, 2-(4-((8-Hydroxy-2-methylquinolin-5-yl)methyl)piperazin-1-yl)-N-(1,2,3,4-tetrahydroacridin-9-yl)acetamide]	9.42	4.39 ± 0.27 µM	2.53 ± 0.2 µM	0.58	9.71	23.3 ± 3.2%		no reliable shift	around 0.7	265 nm	262 nm				
Oc1c(I)cc(Cl)c2cccnc12 [clioquinol, reference compound]	9.86				8.38									8.84	10.08
